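Cultured in 96-well plates, cells were exposed to test compound for 48 hours across five concentrations. At the GI50, growth is halved.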 Activity calls are given as the source filed them. Cut-off read from the data, not from the text of the source: active = GI50 up to about 1.1 µM and inactive = higher.
Legend:
Assay in all cases: NCI anticancer screen, dose series, 48 h
UACC-257 = tested on: UACC-257
EKVX = tested on: EKVX
NCI-H460 = tested on: NCI-H460
MDA-MB-231 = tested on: MDA-MB-231
OVCAR-5 = tested on: OVCAR-5
RPMI-8226 = tested on: RPMI-8226
A498 = tested on: A498
HL-60 = tested on: HL-60
KM12 = tested on: KM12
NCI-H522 = tested on: NCI-H522
BT-549 = tested on: BT-549
Hs-578T = tested on: Hs-578T
SNB-19 = tested on: SNB-19
SK-MEL-28 = tested on: SK-MEL-28
COLO 205 = tested on: COLO 205
MDA-MB-435 = tested on: MDA-MB-435
SF-268 = tested on: SF-268
HOP-92 = tested on: HOP-92
HOP-62 = tested on: HOP-62
ACHN = tested on: ACHN
CAKI-1 = tested on: CAKI-1
HCC 2998 = tested on: HCC 2998
U-251 = tested on: U-251
SN12C = tested on: SN12C
SK-MEL-2 = tested on: SK-MEL-2
MOLT-4 = tested on: MOLT-4
T47D = tested on: T47D
MDA-N = tested on: MDA-N
UO-31 = tested on: UO-31
IGROV-1 = tested on: IGROV-1
CCRF-CEM = tested on: CCRF-CEM
PC-3 = tested on: PC-3
786-0 = tested on: 786-0
K562 = tested on: K562
HCT-116 = tested on: HCT-116
SK-MEL-5 = tested on: SK-MEL-5
DU-145 = tested on: DU-145
SF-295 = tested on: SF-295
OVCAR-3 = tested on: OVCAR-3
TK-10 = tested on: TK-10
OVCAR-8 = tested on: OVCAR-8
SR = tested on: SR
MCF7 = tested on: MCF7
SF-539 = tested on: SF-539
UACC-62 = tested on: UACC-62
A549 = tested on: A549
HT-29 = tested on: HT-29
Malme-3M = tested on: Malme-3M
M14 = tested on: M14
HCT-15 = tested on: HCT-15
NCI-H23 = tested on: NCI-H23
SNB-75 = tested on: SNB-75
RXF 393 = tested on: RXF 393
LOX IMVI = tested on: LOX IMVI
OVCAR-4 = tested on: OVCAR-4
NCI/ADR-RES = tested on: NCI/ADR-RES
NCI-H226 = tested on: NCI-H226
SK-OV-3 = tested on: SK-OV-3
SW-620 = tested on: SW-620
KM-20L2 = tested on: KM-20L2
DMS-273 = tested on: DMS-273
M19-MEL = tested on: M19-MEL
DMS-114 = tested on: DMS-114
LXFL 529 = tested on: LXFL 529
HOP-18 = tested on: HOP-18
SNB-78 = tested on: SNB-78
DLD-1 = tested on: DLD-1
XF498 = tested on: XF498

Measured: GI50

C/C(=N\NC(=O)c1ccncc1)c1ccc2ccccc2c1O
0.419 µM: HCT-15
inactive: UACC-257 2.71 µM | MDA-MB-231 5.08 µM | OVCAR-5 6.12 µM | RPMI-8226 4.33 µM | A498 11.2 µM | KM12 2.31 µM | BT-549 10.8 µM | Hs-578T 16.8 µM | SNB-19 17.5 µM | SK-MEL-28 17.2 µM | MDA-MB-435 8.99 µM | HOP-92 8.28 µM | HOP-62 4.37 µM | CAKI-1 2.25 µM | HCC 2998 2.9 µM | U-251 2.69 µM | SN12C 1.62 µM | SK-MEL-2 7.69 µM | MDA-N 4.41 µM | IGROV-1 2.29 µM | PC-3 5.6 µM | K562 1.84 µM | SK-MEL-5 1.67 µM | DU-145 2.25 µM | SF-295 1.77 µM | TK-10 4.63 µM | OVCAR-8 2.18 µM | MCF7 1.35 µM | SF-539 1.46 µM | UACC-62 2.19 µM | A549 1.77 µM | Malme-3M 1.19 µM | M14 2.08 µM | NCI-H23 3.82 µM | SNB-75 3.66 µM | RXF 393 3.08 µM | NCI/ADR-RES 1.87 µM | NCI-H226 1.77 µM | SK-OV-3 4.47 µM | SW-620 3.12 µM
active: EKVX 0.832 µM | NCI-H460 0.356 µM | HL-60 0.638 µM | NCI-H522 0.869 µM | COLO 205 0.561 µM | SF-268 0.802 µM | ACHN 0.993 µM | MOLT-4 0.513 µM | T47D 1.01 µM | UO-31 0.838 µM | CCRF-CEM 0.232 µM | 786-0 0.548 µM | HCT-116 0.608 µM | OVCAR-3 0.29 µM | SR 0.303 µM | HT-29 0.498 µM | LOX IMVI 1.04 µM | OVCAR-4 0.966 µM

CC1=C[P+](Cc2ccccc2)(c2ccccc2)CC1 (configuration not stated)
inactive: UACC-257 41.9 µM | EKVX 54.6 µM | RPMI-8226 25.7 µM | A498 > 100 µM | HL-60 34 µM | KM12 > 100 µM | NCI-H522 41.7 µM | KM-20L2 75.2 µM | SNB-19 > 100 µM | COLO 205 31.6 µM | DMS-273 78 µM | HOP-62 > 100 µM | M19-MEL 46.8 µM | SK-MEL-2 > 100 µM | UO-31 > 100 µM | IGROV-1 81.1 µM | DMS-114 46.9 µM | CCRF-CEM > 100 µM | LXFL 529 45.4 µM | HCT-116 > 100 µM | SK-MEL-5 21.5 µM | OVCAR-3 44.3 µM | HOP-18 > 100 µM | SF-539 > 100 µM | UACC-62 63.7 µM | HT-29 66.4 µM | LOX IMVI 90.4 µM | NCI-H226 > 100 µM | SW-620 > 100 µM

COc1cc(OC)c(OC)cc1/C=C\c1ccnc2ccccc12
0.437 µM: HCT-15
active: NCI-H460 0.555 µM | MDA-MB-231 0.796 µM | RPMI-8226 0.577 µM | A498 0.522 µM | HL-60 0.344 µM | KM12 0.675 µM | NCI-H522 0.333 µM | KM-20L2 0.948 µM | BT-549 0.412 µM | Hs-578T 0.252 µM | SNB-19 1.01 µM | SK-MEL-28 0.782 µM | COLO 205 0.463 µM | DMS-273 0.317 µM | MDA-MB-435 0.156 µM | SF-268 0.838 µM | HOP-62 0.582 µM | CAKI-1 1.05 µM | HCC 2998 1.02 µM | U-251 0.628 µM | SN12C 0.622 µM | M19-MEL 0.851 µM | SK-MEL-2 0.308 µM | MOLT-4 0.575 µM | T47D 0.771 µM | MDA-N 0.185 µM | UO-31 0.944 µM | IGROV-1 0.897 µM | DMS-114 0.649 µM | PC-3 0.532 µM | 786-0 0.687 µM | DLD-1 0.944 µM | K562 0.282 µM | HCT-116 0.574 µM | SK-MEL-5 0.414 µM | DU-145 1.01 µM | SF-295 0.48 µM | OVCAR-3 0.387 µM | SR 0.933 µM | MCF7 0.372 µM | SF-539 0.394 µM | UACC-62 0.541 µM | A549 0.849 µM | HT-29 0.522 µM | Malme-3M 0.7 µM | M14 0.574 µM | NCI-H23 0.832 µM | SNB-75 0.335 µM | RXF 393 0.466 µM | LOX IMVI 0.61 µM | NCI/ADR-RES 0.374 µM | NCI-H226 0.977 µM | SK-OV-3 0.465 µM | SW-620 0.679 µM
inactive: UACC-257 4.88 µM | EKVX 2.17 µM | OVCAR-5 7.23 µM | SNB-78 1.2 µM | HOP-92 1.21 µM | ACHN 1.29 µM | CCRF-CEM 1.4 µM | LXFL 529 1.45 µM | TK-10 2.17 µM | OVCAR-8 1.25 µM | OVCAR-4 4.51 µM

COc1cc(C=O)cc(/C=N/c2ccc(Br)cc2)c1O
2.15 µM: HCT-15
inactive: UACC-257 5.75 µM | EKVX 13.6 µM | NCI-H460 2.71 µM | MDA-MB-231 4.44 µM | OVCAR-5 24.5 µM | RPMI-8226 3.33 µM | A498 16.4 µM | HL-60 2.11 µM | KM12 10.2 µM | BT-549 6.25 µM | Hs-578T 1.8 µM | SNB-19 12.7 µM | SK-MEL-28 6.71 µM | COLO 205 4.09 µM | SF-268 1.66 µM | HOP-92 3.53 µM | HOP-62 11.7 µM | ACHN 2.53 µM | CAKI-1 2.93 µM | HCC 2998 14.1 µM | U-251 4.57 µM | SN12C 4.13 µM | SK-MEL-2 2.78 µM | MOLT-4 22 µM | T47D 1.15 µM | MDA-N 3.72 µM | UO-31 3.2 µM | IGROV-1 40.3 µM | CCRF-CEM 7.59 µM | PC-3 2.81 µM | HCT-116 6.79 µM | SK-MEL-5 2.19 µM | DU-145 11.3 µM | SF-295 2.52 µM | OVCAR-3 13.5 µM | TK-10 32.4 µM | OVCAR-8 2.86 µM | SR 2.68 µM | MCF7 4.47 µM | SF-539 2.38 µM | A549 4.85 µM | HT-29 17.7 µM | Malme-3M 4.04 µM | M14 1.66 µM | NCI-H23 17.7 µM | SNB-75 23.8 µM | RXF 393 4.43 µM | OVCAR-4 22.5 µM | NCI/ADR-RES 2.49 µM | NCI-H226 2.59 µM | SK-OV-3 2.17 µM | SW-620 1.25 µM
active: NCI-H522 0.995 µM | MDA-MB-435 1.05 µM | K562 0.555 µM | UACC-62 0.347 µM | LOX IMVI 0.16 µM

Cc1cn(C2CC(N(O)Cc3ccccc3)C(CO)O2)c(=O)[nH]c1=O (configuration not stated)
inactive: UACC-257 > 100 µM | EKVX > 100 µM | NCI-H460 > 100 µM | OVCAR-5 > 100 µM | RPMI-8226 > 100 µM | HL-60 > 100 µM | KM12 > 100 µM | XF498 > 100 µM | KM-20L2 > 100 µM | SNB-78 > 100 µM | SNB-19 > 100 µM | SK-MEL-28 > 100 µM | COLO 205 > 100 µM | DMS-273 > 100 µM | SF-268 > 100 µM | HOP-62 > 100 µM | ACHN > 100 µM | HCC 2998 > 100 µM | U-251 > 100 µM | SN12C > 100 µM | M19-MEL > 100 µM | MOLT-4 > 100 µM | UO-31 > 100 µM | IGROV-1 > 100 µM | DMS-114 > 100 µM | CCRF-CEM > 100 µM | LXFL 529 > 100 µM | 786-0 5.24 µM | K562 > 100 µM | HCT-116 > 100 µM | SK-MEL-5 > 100 µM | SF-295 > 100 µM | OVCAR-3 > 100 µM | TK-10 > 100 µM | OVCAR-8 > 100 µM | SR > 100 µM | SF-539 > 100 µM | UACC-62 > 100 µM | A549 > 100 µM | HT-29 > 100 µM | M14 > 100 µM | NCI-H23 > 100 µM | SNB-75 > 100 µM | RXF 393 > 100 µM | LOX IMVI > 100 µM | OVCAR-4 > 100 µM | NCI-H226 > 100 µM | SK-OV-3 > 100 µM | SW-620 > 100 µM
> 100 µM: HCT-15

From ChEMBL document CHEMBL1201862, “PubChem BioAssay data set” (2004)
